Measured values taken from patent US9908890B2, “Selective inhibitors of constitutive androstane receptor” (ST. JUDE CHILDREN'S RESEARCH HOSPITAL, priority 2014, dated 2018).

What was measured:
[1] = tested on: CAR binding to CYP2B6 and CYP3A4 promoter response elements; experiment: Chromatin immunoprecipitation (CAR / RNA polymerase II occupancy at promoters); format: cell-based, human
Procedure: FIG. 8B and FIG. 8C show the fold enrichment of CAR at CYP2B6-dNR3 and CYP2B6-PBREM sites, respectively, in the promoter region following the indicated treatment in human primary hepatocytes. […] Protein complexes were cross-linked and chromatin was immunoprecipitated by using anti-CAR antibody or control IgG. CAR occupancy at two separate CYP2B6 promoter regions (dNR3 and PBREM) was determined by performing quantitative RT-PCR assays. Fold-enrichment normalized to IgG control was plotted. Data represent the mean±SD of 3 experiments. *, p<0.01 comparing CITCO treatment to DMSO treatment.
FIG. 9A, FIG. 9B, and FIG. 9C show the fold enrichment of CAR at CYP2B6-dNR3, CYP3A4-XREM, and CYP2B6-dNR3 sites, respectively, in the promoter region following the indicated treatment in human primary hepatocytes or HepG2-hCAR1 cells, as indicated in the figures. Briefly, in FIG. 9A and FIG. […] 9C HepG2-hCAR1 stable cells were treated for […] with DMSO, 1 μM CITCO, 5 μM CINPA1, or 1 μM CITCO+5 μM CINPA1. Protein complexes were cross-linked and chromatin was immunoprecipitated by using anti-CAR antibody, anti-RNA polymerase II (RPol) antibody, or control IgG. CAR or RPol occupancy at the CYP2B6-dNR3 region and CYP3A4-XREM region was determined by performing quantitative RT-PCR assays. Fold-enrichment was normalized to IgG control. Data represent the mean±SD of 3 experiments. *, p<0.001 and #, p<0.01 comparing CITCO to DMSO samples. **, p<0.001 and ##, p<0.01 comparing CITCO+CINPA1 to CITCO samples.
ChIP was performed as described previously (Cherian, M. T., et al. (2012) J. Biol. Chem. 287, 23368-23380). Briefly, human hepatocytes in 6-well plates were maintained for 3-4 days in Williams E medium containing Primary Hepatocyte Maintenance Supplement (Life Technologies), with daily media changes. Nine wells were used for each treatment group. […] The HepG2-hCAR1 stable cells in FIG. 9 were treated with DMSO, 1 μM CITCO, 5 μM CINPA1, or 1 μM CITCO+5 μM CINPA1 for […]. In FIG. 9, the hepatocytes from donor 7 were treated with DMSO, 0.1 μM CITCO, 1 μM CINPA1, or 0.1 μM CITCO+1 μM CINPA1 for 45 min. Proteins were cross-linked with 1% formaldehyde for 10 min. Cell extracts were digested for 10 min with 50 units of micrococcal nuclease (New England Biolabs) at 37° C. and further sonicated to yield sheared DNA fragments having an average length of 200-1000 base pairs. The sonicated samples were pelleted by centrifugation, and the supernatant was diluted 3- to 5-fold with ChIP dilution buffer (0.01% SDS, 1.1% Triton X-100, 1.2 mM EDTA, 16.7 mM Tris-HCl, pH 8.1, 167 mM NaCl, and protease inhibitor cocktail). […] Quantitative RT-PCR assays were performed to determine the change in CAR occupancy at various sites of CAR binding. […]

[2] = target: T1, hCAR1 interaction with coregulators (SRC-1, TIF2, SMRTα, mNCoR) (Homo sapiens, UniProt Q14994); experiment: Mammalian two-hybrid assay (HEK293T cells); format: cell-based
T1 construct: expressed in transfected cells; host or cells: HEK293T
T1 sequence (Q14994 1-348 isoform Q14994-2): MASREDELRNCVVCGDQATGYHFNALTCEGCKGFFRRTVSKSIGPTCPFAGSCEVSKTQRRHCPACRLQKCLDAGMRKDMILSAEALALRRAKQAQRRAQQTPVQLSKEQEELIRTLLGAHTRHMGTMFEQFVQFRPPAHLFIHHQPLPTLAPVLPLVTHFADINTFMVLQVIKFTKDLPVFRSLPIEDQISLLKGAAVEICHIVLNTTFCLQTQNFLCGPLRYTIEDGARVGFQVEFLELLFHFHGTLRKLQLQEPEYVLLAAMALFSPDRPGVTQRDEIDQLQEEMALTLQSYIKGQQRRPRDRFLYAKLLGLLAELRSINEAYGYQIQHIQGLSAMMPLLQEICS
Description: Briefly, mammalian two-hybrid assays were set up in HEK293T cells transfected with expression plasmids encoding VP16AD-hCAR1 fusion protein, GAL4DBD-co-activator fusion proteins, and the reporter plasmid pG5luc. […] Fold interaction represents pG5luc reporter activity normalized to the Renilla luciferase internal control. Data presented are the mean±SD of at least three independent transfections. *, p<0.001 compared to DMSO treatment within the indicated co-activator set. […] Briefly, mammalian two-hybrid assays were set up in HEK293T cells transfected with expression plasmids encoding VP16AD-hCAR1 fusion protein, GAL4DBD-co-repressor fusion proteins, and the reporter plasmid pG51luc. […] Fold interaction represents pG5luc reporter activity normalized to the Renilla luciferase internal control. Data presented are the mean±SD of at least three independent transfections. *, p<0.001 compared to DMSO treatment within the indicated co-repressor set.
The pACT-hCAR1, pBIND-coregulator peptide and pG5-luc were cotransfected into HEK293T cells. Renilla luciferase is constitutively expressed from the pBIND plasmids. The Dual-Glo Luciferase Assay (Promega) was used to measure pG5-luc luciferase activity. The relative luciferase activity was determined by normalizing firefly luciferase activity with Renilla luciferase activity.

[3] = human hepatocytes, 0.1 μM CITCO + 1 μM CINPA1, 45 min

Structure (SMILES): CCOC(=O)Nc1ccc2c(c1)N(C(=O)CN(CC)CC)c1ccccc1CC2 [CINPA1]
- CITCO-mediated recruitment of CAR and RNA polymerase II to XREM (dNR3) of the CYP2B6 promoter [1, 3]: effectively reduced
- CITCO-mediated recruitment of CAR and RNA polymerase II to XREM of the CYP3A4 promoter [1, 3]: also reduced
- CAR recruitment to XREM (dNR3) of the CYP2B6 gene ([1]; human primary hepatocytes, 3 donors, overnight, 1 μM CITCO or 5 μM CINPA1): prevents CAR recruitment
- corepressor (SMRTα, mNCoR) interaction with CAR-LBD ([2]; 5 μM CINPA1, 24 h): increased interaction
- coactivator (SRC-1, TIF-2) binding to CAR-LBD ([2]; 5 μM CINPA1, presence or absence of CITCO, 24 h): reduced SRC-1 and TIF-2 coactivator binding
